Results as given in ChEMBL document CHEMBL5375989, “Pioneering 4,11-Dioxo-4,11-dihydro-1H-anthra[2,3-d]imidazol-3-ium Compounds as Promising Survivin Inhibitors by Targeting ILF3/NF110 for Cancer Therapy” (J Med Chem, 2023).
Active and inactive are the calls of the source. No cut-off for these calls is given here.

Key:
[1] = Toxicity in BALB/c nude mouse assessed as side effects at 2 mg/kg, sc administered every 2 days for 14 days; format: organism-based; conditions: in vivo, 336 h, time 14 day
[2] = Toxicity in BALB/c mouse assessed as appearance of spotty necrosis of hepatocytes at 2 mg/kg by H and E staining based analysis; format: organism-based; conditions: in vivo
A549 [3] = experiment: Antitumor activity against human A549 cells xenografted in BALB/c nude mouse assessed as inhibition of tumor growth at 2 mg/kg, sc administered every 2 days for 14 days; format: functional, organism-based; conditions: time 14.0 day
[4] = Toxicity in BALB/c mouse assessed as appearance of severe damage to spleen tissue at 2 mg/kg by H and E staining based analysis; format: organism-based; conditions: in vivo
A549 [5] = experiment: Antitumor activity against human A549 cells xenografted in BALB/c nude mouse assessed as decrease in tumor cell proliferation at 2 mg/kg measured after 14 days by PCNA staining based analysis; format: functional, organism-based; conditions: time 14.0 day
[6] = Toxicity in BALB/c mouse assessed as appearance of acidophilic degeneration of myocardial cells at 2 mg/kg by H and E staining based analysis; format: organism-based; conditions: in vivo
A549 [7] = experiment: Antitumor activity against human A549 cells xenografted in BALB/c nude mouse assessed as appearance of various size of tumor necrosis at 2 mg/kg measured after 14 days by H and E staining based analysis; format: functional, organism-based; conditions: time 14.0 day
[8] = Toxicity in BALB/c nude mouse assessed as effect on body weight at 2 mg/kg, sc administered every 2 days for 14 days; format: organism-based; conditions: in vivo, 336 h, time 14 day
A549 [9] = experiment: Antitumor activity against human A549 cells xenografted in BALB/c nude mouse assessed as decrease in tumor cell proliferation at 2 mg/kg measured after 14 days by Ki67 staining based analysis; format: functional, organism-based; conditions: time 14.0 day
A549 [10] = experiment: Antitumor activity against human A549 cells xenografted in BALB/c nude mouse assessed as increase in apoptosis at 2 mg/kg measured after 14 days by tunel staining based analysis; format: functional, organism-based; conditions: time 14.0 day
[11] = Antiproliferative activity against human HUVEC cells assessed as inhibition of cell growth measured after 48 hrs by MTT assay; format: toxicity, cell-based; conditions: human, HUVEC cells
[12] = Drug uptake in Sprague-Dawley rat blood at 2 mg/kg measured after 2 hrs by UPLC-3Q analysis; format: ADME, organism-based; conditions: in vivo
[13] = Toxicity in BALB/c mouse assessed as appearance of condensed nuclei at 2 mg/kg by H and E staining based analysis; format: organism-based; conditions: in vivo
[14] = Toxicity in BALB/c mouse assessed as varying degree of multifocal alveolar luminal hemorrhage at 2 mg/kg by H and E staining based analysis; format: organism-based; conditions: in vivo
[15] = Toxicity in BALB/c mouse assessed as appearance of renal tubular necrosis in cortex at 2 mg/kg by H and E staining based analysis; format: organism-based; conditions: in vivo
[16] = Selectivity index, ratio of IC50 for mouse L929 cells to IC50 for human A549 cells; format: toxicity; conditions: L929 cells and A549 cells, read-out: Ratio IC50
[17] = Drug metabolism in BALB/C nude mouse kidney xenografted with human A549 cells at 2 mg/kg measured after 2 to 6 hrs by UPLC-3Q analysis; format: ADME, organism-based; conditions: in vivo, time 2-6 hrs
[18] = Toxicity in BALB/c mouse assessed as morphological changes with karyopyknosis in spleen at 2 mg/kg by H and E staining based analysis; format: organism-based; conditions: in vivo
[19] = Toxicity in BALB/c mouse assessed as disappearance of nuclei at 2 mg/kg by H and E staining based analysis; format: organism-based; conditions: in vivo
[20] = Antiproliferative activity against mouse NIH3T3 cells assessed as inhibition of cell growth measured after 48 hrs by MTT assay; format: toxicity, cell-based; conditions: mouse, NIH3T3 cells
[21] = Antiproliferative activity against human MRC5 cells assessed as inhibition of cell growth measured after 48 hrs by MTT assay; format: toxicity, cell-based; conditions: human, MRC5 cells
[22] = Toxicity in BALB/c mouse assessed as morphological changes with karyorrhexis in spleen at 2 mg/kg by H and E staining based analysis; format: organism-based; conditions: in vivo
[23] = Drug distribution in BALB/C nude mouse heart xenografted with human A549 cells at 2 mg/kg measured after 2 to 6 hrs by UPLC-3Q analysis; format: ADME, organism-based; conditions: in vivo, time 2-6 hrs
[24] = target: T1, Interleukin enhancer-binding factor 3 (Homo sapiens, UniProt Q12906); experiment: Binding affinity to ILF3 (unknown origin) assessed as dissociation constant at upto 1 uM by SPR method
T1 sequence (Q12906 whole entry): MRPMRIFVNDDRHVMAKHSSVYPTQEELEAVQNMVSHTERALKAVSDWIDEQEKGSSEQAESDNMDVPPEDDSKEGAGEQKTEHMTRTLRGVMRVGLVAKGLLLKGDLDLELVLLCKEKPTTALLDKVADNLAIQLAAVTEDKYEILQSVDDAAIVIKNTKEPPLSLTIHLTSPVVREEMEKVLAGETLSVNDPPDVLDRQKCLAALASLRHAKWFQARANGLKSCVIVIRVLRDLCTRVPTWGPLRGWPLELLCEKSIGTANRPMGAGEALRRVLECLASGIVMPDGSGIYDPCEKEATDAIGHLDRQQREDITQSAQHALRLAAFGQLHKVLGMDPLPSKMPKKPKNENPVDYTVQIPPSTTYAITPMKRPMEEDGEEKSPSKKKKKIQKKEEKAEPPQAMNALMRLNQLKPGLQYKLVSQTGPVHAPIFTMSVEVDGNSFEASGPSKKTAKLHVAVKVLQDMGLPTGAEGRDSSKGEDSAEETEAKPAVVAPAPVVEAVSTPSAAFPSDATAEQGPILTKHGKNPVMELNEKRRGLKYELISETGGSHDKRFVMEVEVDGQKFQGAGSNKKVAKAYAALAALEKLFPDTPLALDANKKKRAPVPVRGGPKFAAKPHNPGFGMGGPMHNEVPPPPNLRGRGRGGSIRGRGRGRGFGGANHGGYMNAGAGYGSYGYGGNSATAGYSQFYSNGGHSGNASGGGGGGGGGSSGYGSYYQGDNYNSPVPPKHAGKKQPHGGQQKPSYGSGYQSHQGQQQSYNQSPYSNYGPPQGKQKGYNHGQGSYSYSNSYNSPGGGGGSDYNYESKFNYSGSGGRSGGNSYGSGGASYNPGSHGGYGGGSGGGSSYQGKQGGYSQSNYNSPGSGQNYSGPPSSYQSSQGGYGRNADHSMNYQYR

A549 [25] = experiment: Induction of apoptosis in human A549 cells assessed as late apoptotic cells at 0.1 uM measured after 48 hrs by annexin V and PI staining based flow cytometry analysis (reference value: 4.70%); format: functional
NCI-H460 = experiment: Antiproliferative activity against human NCI-H460 cells assessed as inhibition of cell growth measured after 48 hrs by MTT assay; format: functional, cell-based; conditions: Homo sapiens, NCI-H460, 48 h
ASPC1 = experiment: Antiproliferative activity against human ASPC1 cells assessed as inhibition of cell growth measured after 48 hrs by MTT assay; format: functional, cell-based; conditions: aspc1
MCF7 = experiment: Antiproliferative activity against human MCF7 cells assessed as inhibition of cell growth measured after 48 hrs by MTT assay; format: functional, cell-based; conditions: MCF7, 48 h
A549 [26] = experiment: Induction of apoptosis in human A549 cells assessed as necrotic cells at 0.04 uM measured after 48 hrs by annexin V and PI staining based flow cytometry analysis (reference value: 1.47%); format: functional
NCI-H1299 = experiment: Antiproliferative activity against human NCI-H1299 cells assessed as inhibition of cell growth measured after 48 hrs by MTT assay; format: functional, cell-based; conditions: Homo sapiens, NCI-H1299, 48 h
143B = experiment: Antiproliferative activity against human 143B cells assessed as inhibition of cell growth measured after 48 hrs by MTT assay; format: functional, cell-based; conditions: Homo sapiens, 143B, 48 h
BXPC-3 = experiment: Antiproliferative activity against human BXPC-3 cells assessed as inhibition of cell growth measured after 48 hrs by MTT assay; format: functional, cell-based; conditions: Homo sapiens, BXPC-3, 48 h
A549 [27] = experiment: Induction of apoptosis in human A549 cells assessed as viable cells at 0.1 uM measured after 48 hrs by annexin V and PI staining based flow cytometry analysis (reference value: 93.3%); format: functional
A549 [28] = experiment: Induction of apoptosis in human A549 cells assessed as viable cells at 0.04 uM measured after 48 hrs by annexin V and PI staining based flow cytometry analysis (reference value: 93.3%); format: functional
A549 [29] = experiment: Induction of apoptosis in human A549 cells assessed as early apoptotic cells at 0.1 uM measured after 48 hrs by annexin V and PI staining based flow cytometry analysis (reference value: 0.71%); format: functional
A549 [30] = experiment: Induction of apoptosis in human A549 cells assessed as necrotic cells at 0.25 uM measured after 48 hrs by annexin V and PI staining based flow cytometry analysis (reference value: 1.47%); format: functional
A549 [31] = experiment: Induction of apoptosis in human A549 cells assessed as viable cells at 0.25 uM measured after 48 hrs by annexin V and PI staining based flow cytometry analysis (reference value: 93.3%); format: functional
A549 [32] = experiment: Induction of apoptosis in human A549 cells assessed as late apoptotic cells at 0.25 uM measured after 48 hrs by annexin V and PI staining based flow cytometry analysis (reference value: 4.70%); format: functional
HeLa = experiment: Antiproliferative activity against human HeLa cells assessed as inhibition of cell growth measured after 48 hrs by MTT assay; format: functional, cell-based; conditions: Homo sapiens, HeLa, 48 h
A549 [33] = experiment: cells; conditions: Homo sapiens, A549, 48 h
Description: Antiproliferative activity against human A549 cells assessed as inhibition of cell growth measured after 48 hrs by MTT assay

A549 [34] = experiment: Induction of apoptosis in human A549 cells assessed as necrotic cells at 0.1 uM measured after 48 hrs by annexin V and PI staining based flow cytometry analysis (reference value: 1.47%); format: functional
A549 [35] = experiment: Induction of apoptosis in human A549 cells assessed as early apoptotic cells at 0.25 uM measured after 48 hrs by annexin V and PI staining based flow cytometry analysis (reference value: 0.71%); format: functional
A549 [36] = experiment: Induction of apoptosis in human A549 cells assessed as early apoptotic cells at 0.04 uM measured after 48 hrs by annexin V and PI staining based flow cytometry analysis (reference value: 0.71%); format: functional
[37] = Antiproliferative activity against mouse L929 cells assessed as inhibition of cell growth measured after 48 hrs by MTT assay; format: toxicity, cell-based; conditions: mouse, L929 cells
HepG2 = experiment: Antiproliferative activity against human HepG2 cells assessed as inhibition of cell growth measured after 48 hrs by MTT assay; format: functional, cell-based; conditions: Homo sapiens, HepG2, 48 h
A549 [38] = experiment: Induction of apoptosis in human A549 cells assessed as late apoptotic cells at 0.04 uM measured after 48 hrs by annexin V and PI staining based flow cytometry analysis (reference value: 4.70%); format: functional
PANC-1 = experiment: Antiproliferative activity against human PANC-1 cells assessed as inhibition of cell growth measured after 48 hrs by MTT assay; format: functional, cell-based; conditions: Homo sapiens, PANC-1, 48 h

Description for 5637: Antiproliferative activity against human 5637 cells assessed as inhibition of cell growth measured after 48 hrs by MTT assay
Description for TE-1: Antiproliferative activity against human TE-1 cells assessed as inhibition of cell growth measured after 48 hrs by MTT assay

Structure (SMILES): COc1cccc2c1C(=O)c1c(O)c3c(c(O)c1C2=O)C[C@@](O)(C(=O)CO)C[C@@H]3O[C@H]1C[C@H](N)[C@H](O)[C@H](C)O1 [DOXORUBICIN]
- Activity [1]: Toxic
- Activity [2]: Toxic
- Activity (A549 [3]): Active
- Activity [4]: Toxic
- Activity (A549 [5]): Active
- Activity [6]: Toxic
- Activity (A549 [7]): Active
- Activity [8]: Toxic
- Activity (A549 [9]): Active
- Activity (A549 [10]): Active

Structure (SMILES): COCCn1c2c([n+](Cc3cnccn3)c1C)C(=O)c1ccccc1C2=O.[Br-] [SEPANTRONIUM BROMIDE]
- IC50 at 48 h [11]: 920 nM
- Drug uptake [12]: Not Active
- Activity [13]: Toxic
- Activity [14]: Toxic
- Activity [15]: Toxic
- selectivity ratio [16]: 970
- Drug metabolism [17]: Metabolite_Detected
- Activity [18]: Toxic
- Activity [19]: Toxic
- IC50 at 48 h [20]: 13600 nM
- IC50 at 48 h [21]: 1940 nM
- Activity [22]: Toxic
- Drug uptake [23]: Active
- Kd [24]: 571 nM

Structure (SMILES): Cn1c[n+](C)c2c1C(=O)c1cc3ccccc3cc1C2=O.[Br-]
- Activity (A549 [25]): 79.7%
- IC50 (NCI-H460): 160 nM
- IC50 at 48 h [11]: 10500 nM
- IC50 (ASPC1): 110 nM
- IC50 5637: 110 nM
- IC50 (MCF7): 60 nM
- Activity (A549 [26]): 13.9%
- IC50 (NCI-H1299): 540 nM
- IC50 (143B): 410 nM
- IC50 (BXPC-3): 110 nM
- Activity (A549 [27]): 8.24%
- Activity (A549 [28]): 25.3%
- Activity (A549 [29]): 0.55%
- IC50 (TE-1): 30 nM
- IC50 at 48 h [20]: 14200 nM
- Activity (A549 [30]): 7.92%
- Activity (A549 [31]): 2.43%
- Activity (A549 [32]): 89.2%
- IC50 (HeLa): 1860 nM
- IC50 (A549 [33]): 10 nM
- IC50 at 48 h [21]: 3980 nM
- Activity (A549 [34]): 11.5%
- Activity (A549 [35]): 0.22%
- Activity (A549 [36]): 1.6%
- IC50 at 48 h [37]: 13600 nM
- IC50 (HepG2): 360 nM
- Activity (A549 [38]): 58.5%
- IC50 (PANC-1): 90 nM
